# Source: patent US20210346329A1, “TCA CYCLE INTERMEDIATES AND METHODS OF USE THEREOF” (IMBRIA PHARMACEUTICALS, INC., priority 2018, published 2021)
# Assay: Percentage recovery of radioactive dose (expired CO2, urine, feces, cage rinse and wipe)
# Settings: IV 10 mg/kg, Subject 1006
# Protocol: The plasma-time course, routes and rates of excretion, and tissue distribution of radioactivity following a single oral dose of ^14C-labeled citrate or single oral dose of ^14C-labeled succinate were analyzed in rats.
# Formulations were prepared on the day prior to dosing.
# CD® rats were obtained from Charles River Laboratories. Animals were 9-11 weeks in age at beginning of study.
# Animals given intravenous ^14C-succinate were not kept in a fasting state. ^14C-succinate was administered by tail vein injection.
# Following oral dosing, the tube and dose site were wiped with gauze, which was collected for subsequent radioanalysis. Following IV dosing, the needle and dose site were wiped with gauze, which was collected for subsequent radioanalysis. The dose site wipe total radioactivity was subtracted from the total dose administered, to determine dose loss, according to SOP ADME.
# Urine and feces were collected at 0-24 hours post-dose and stored on wet ice. Expired CO2 was collected at 0-8 hours and 8-24 hours post-dose by drawing air through traps containing 2 N NaOH according to MPI Research SOP. Samples were stored at ambient temperature and weighed. Aliquots were submitted for radioanalysis.
# At 24 hours post-dose, cages were rinsed with a 1% trisodium phosphate (TSP) solution and wiped with gauze pads. The final cage rinse samples and cage wipe samples were collected into separate appropriate containers, and the weight of each cage rinse and cage wipe were recorded.
# Samples were analyzed for radioactivity by liquid scintillation counting (LSC) for at least 5 minutes or 100,000 cumulative counts. Samples were analyzed in triplicate.
structure (smiles),measurement,setting,value
O=C(O)CCC(=O)O [^14C-succinate],Percentage recovery of radioactive dose,"Cage rinse, 0-24 hr",0.1 % recovery
same,Percentage recovery of radioactive dose,"Cage wipe, 24 hr",0.0 % recovery
same,Percentage recovery of radioactive dose,"Expired trap 1, 0-8 hr (line r8)",54.8 % recovery
same,Percentage recovery of radioactive dose,"Expired trap 1, 0-8 hr (line r9)",4.6 % recovery
same,Percentage recovery of radioactive dose,"Expired trap 1, 0-8 hr (line r10)",0.4 % recovery
same,Percentage recovery of radioactive dose,"Expired trap 1, 0-8 hr (line r12)",1.3 % recovery
same,Percentage recovery of radioactive dose,"Expired trap 1, 0-8 hr (line r13)",0.7 % recovery
same,Percentage recovery of radioactive dose,"Expired trap 1, 0-8 hr (line r14)",0.3 % recovery
same,Percentage recovery of radioactive dose,"Feces, 0-24 hr",0.2 % recovery
same,Percentage recovery of radioactive dose,Subtotal of expired traps (line r11),59.8 % recovery
same,Percentage recovery of radioactive dose,Subtotal of expired traps (line r15),2.3 % recovery
same,Percentage recovery of radioactive dose,Total,65.265 % recovery
same,Percentage recovery of radioactive dose,"Urine, 0-24 hr",2.9 % recovery
